From patent publication US10265322B2, “Use of PAR-1 antagonists for preventing and/or treating pelvi-perineal functional pathological conditions” (PIERRE FABRE MEDICAMENT, priority 2013, dated 2019)
Counter-ions that a name gives are not always drawn.

Assays:
PAR [1] = assay: trypsin-induced contraction of rat-isolated bladder strips, inflammation conditions (cyclophosphamide); conditions: for amplitude of bladder contraction / reduction in bladder contraction: inflamed rat bladder; for amplitude of bladder contraction: trypsin 3000 BAEE U/mL; for reduction in bladder contraction: trypsin
Text: (§1) Purpose of the experiment: Evaluate the role of 3-(2-Chloro-phenyl)-1-[4-(4-fluoro-benzyl)-piperazin-1-yl]-propenone on the amplitude of bladder contraction induced by trypsin and TFLLR. The experiment was led in parallel on naïve bladders and on bladders subjected to inflammation procedure. The effect of the compound of the invention was compared with that of a reference PAR1 antagonist: compound SCH203099, (Ahn et al. Biochem. Pharmacol. 60(10:1425-1434, 2000).
(§2) To induce inflammation of the bladder, cyclophosphamide was bilaterally injected into the rats (Female Wistar Han rats weighing 250 to 275 g on the day of the experiment, obtained from Charles River laboratory, France) via intraperitoneal route at a dose of 150 mg/kg in a final volume of 5 mL/kg.
(§3) In naïve rats (no administration of cyclophosphamide) or 24 hours after administration of cyclophosphamide, the animals were anaesthetised with pentobarbital (60 mg/kg) and euthanized. The bladder was rapidly taken and placed in modified Krebs-Henseleit oxygenated solution having the following composition (mM): NaCl 114; KCl 4.7; CaCl2 2.5; MgSO4 1.2; KH2PO4 1.2; NaHCO3 25 and glucose 11.7 (pH 7.4 with 95% O2 and 5% CO2). The bladder was cleaned of conjunctive tissue, weighed, the distal and proximal portions removed and the bladder cut in longitudinal direction into two equal strips. These strips were attached with silk thread and immersed in a 10 mL isolated organ bath (EMKA Technologies) containing the Krebs-Henseleit oxygenated solution with 95%:5% mixture of O2/CO2 held at 37° C. The bladder strips were connected via the silk thread to isometric sensors (IT50 model, EMKA Technologies) connected to amplifiers (EMKA Technologies). Contractile responses were recorded using IOX2® software (EMKA Technologies).
(§4) For an initial stabilisation period of at least 90 minutes, rinsing operations were carried out every 15 minutes and the tensioning of each bladder strip readjusted to 1.0 g. The strips were then exposed to 50 mM KCl to verify their viability. If the contraction amplitude of the strips was less than 1.0 g, the tissues were discarded and not included in the experiment. After a second stabilisation and washing period of at least 45 minutes, a concentration of the compound of the invention or of the reference product (SCH203099) or of the vehicle was incubated for 30 minutes. A concentration-accumulative response curve to the selective agonist PAR1, to TFLLR (0.1 μM to 0.1 mM) or to trypsin (10 U to 10,000 BAEE U/mL) was plotted.

PAR1 [2] = molecular target: T1, PAR1 (Rattus norvegicus, UniProt P26824); assay: TFLLR-induced contraction of rat-isolated bladder strips, inflammation conditions (cyclophosphamide); conditions: inflamed rat bladder, 100 μM TFLLR
T1 construct: the bladder cut in longitudinal direction into two equal strips; from tissue; host or cells: isolated bladder strips of female Wistar Han rats (naive or 24 h after cyclophosphamide)
T1 sequence (P26824 22-432): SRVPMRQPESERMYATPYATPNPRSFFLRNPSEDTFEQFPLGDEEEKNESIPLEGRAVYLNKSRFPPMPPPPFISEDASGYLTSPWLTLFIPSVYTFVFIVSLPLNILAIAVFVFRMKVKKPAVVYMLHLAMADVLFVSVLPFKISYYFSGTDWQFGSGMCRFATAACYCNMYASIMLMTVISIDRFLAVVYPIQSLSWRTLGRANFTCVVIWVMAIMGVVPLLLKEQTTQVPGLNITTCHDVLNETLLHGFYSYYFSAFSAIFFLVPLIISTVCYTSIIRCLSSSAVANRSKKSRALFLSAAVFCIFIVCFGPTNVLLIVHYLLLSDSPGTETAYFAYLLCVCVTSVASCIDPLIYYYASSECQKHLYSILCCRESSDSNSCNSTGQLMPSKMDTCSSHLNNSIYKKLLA
Text: as §1, §2, §3, §4

PAR [3] = assay: trypsin-induced contraction of rat-isolated bladder strips, naive animals; conditions: for effect on trypsin-induced bladder contraction at the other concentrations: other concentrations tested; for amplitude of bladder contraction: trypsin 3000 BAEE U/mL; for reduction in bladder contraction: trypsin
Text: as §1, §3, §4
(§5) These experiments were conducted on naive bladders. The protocol followed was the same as the protocol described in Example 1.

PAR1 [4] = molecular target: T1, PAR1; assay: TFLLR-induced contraction of rat-isolated bladder strips, naive animals
Text: as §1, §3, §4, §5

[5] = solubility of the compound in the organ bath experiment; assay type: physicochemical; conditions: noted at 10 μM and 30 μM in organ bath

| SMILES | amplitude of bladder contraction (PAR [1]; compound 10 μM) [g] | amplitude of bladder contraction (PAR [1]; compound 30 μM) [g] | reduction in bladder contraction (PAR [1]; compound 10 μM) [%] | reduction in bladder contraction (PAR [1]; compound 30 μM) | amplitude of bladder contraction (PAR1 [2]; compound 10 μM) [g] | reduction in bladder contraction (PAR1 [2]; compound 10 μM) [%] | amplitude of bladder contraction (PAR1 [2]; compound 30 μM) [g] | reduction in bladder contraction / contractile response (PAR1 [2]; compound 30 μM) [%] | effect on trypsin-induced bladder contraction versus vehicle (PAR [3]; compound 10 μM) | effect on trypsin-induced bladder contraction at the other concentrations (PAR [3]) | amplitude of bladder contraction (PAR [3]; compound 10 μM) [g] | amplitude of bladder contraction (PAR1 [4]; 100 μM TFLLR, compound 10 μM) [g] | effect on trypsin-induced bladder contraction versus vehicle (PAR [3]; compound 30 μM) | amplitude of bladder contraction (PAR [3]; compound 3 μM) [g] | amplitude of bladder contraction (PAR1 [4]; 100 μM TFLLR, compound 10 nM) [g] | reduction in bladder contraction (PAR1 [4]; 100 μM TFLLR, compound 10 nM) | amplitude of bladder contraction (PAR1 [4]; 100 μM TFLLR, compound 1 μM) [g] | also measured |
| --- | --- | --- | --- | --- | --- | --- | --- | --- | --- | --- | --- | --- | --- | --- | --- | --- | --- | --- |
| CNc1nc(NC2CC2)nc2ccc3c(ccn3Cc3ccc(C(C)C)cc3)c12 [SCH203099] | 1.77 ± 0.38 | 1.04 ± 0.16 | 35 | 60% | 0.73 ± 0.10 | 35 | 0.49 ± 0.08 | 55 | divided by two | nothing was observed | 0.48 ± 0.11 | 0.26 ± 0.07 | – | – | – | – | – | amplitude of bladder contraction (PAR [1]; compound 3 μM): 2.05 ± 0.53 g; reduction in bladder contraction (PAR [1]; compound 3 μM): 25%; reduction in bladder contraction (PAR1 [2]; compound 3 μM (no conclusive effect)): 10%; effect on TFLLR-induced bladder contraction versus vehicle (PAR1 [4]; compound 10 μM): divided by two; effect on TFLLR-induced bladder contraction at the other concentrations (PAR1 [4]; other concentrations tested): nothing was observed |
| CCOc1cc2c(c(F)c1OCC)C(=N)N(CC(=O)c1cc(N3CCOCC3)c(OC)c(C(C)(C)C)c1)C2 [atopaxar, [(1-(3-tert-butyl-4-methoxy-5-morpholinophenyl)-2-(5,6-diethoxy-fluoro-1-imino-1,3-dihydro-2H-isoindol-2yl)ethanone hydrobromide] | – | – | – | – | – | – | – | – | – | – | 0.36 ± 0.15 | – | completely abolishes | 0.74 ± 0.19 | 0.21 ± 0.03 | more than 50% | 0.08 ± 0.03 | effect on trypsin-induced bladder contraction versus vehicle (PAR [3]; compound 1 μM): slight reduction; amplitude of bladder contraction (PAR [3]; compound 1 μM): 1.02 ± 0.20 g; reduction in bladder contraction (PAR [3]; compound 3 μM): 38%; reduction in bladder contraction (PAR [3]; compound 10 μM): 70%; decrease of bladder contraction (PAR1 [4]; 100 μM TFLLR, compound 1 μM): more than 80% |
| O=C(/C=C/c1ccccc1Cl)N1CCN(Cc2ccc(F)cc2)CC1 [compound of the invention, 3-(2-Chloro-phenyl)-1-[4-(4-fluoro-benzyl)-piperazin-1-yl]-propenone] | 1.76 ± 0.30 | 0.92 ± 0.17 | 35 | about 70% | 0.45 ± 0.13 | 60 | 0.11 ± 0.04 | 90 | – | nothing was observed | – | 0.18 ± 0.04 | divided by two | – | – | – | – | effect on trypsin-induced bladder contraction (PAR [1]; inflamed rat bladder (cyclophosphamide), compound up to 3 μM): inactive; reduction in bladder contraction (PAR1 [2]; compound up to 3 μM (no conclusive effect)): 10%; amplitude of bladder contraction (PAR [3]; compound 30 μM): 0.55 ± 0.24 g; amplitude of bladder contraction (PAR1 [4]; 100 μM TFLLR, compound 3 μM): 0.33 ± 0.05 g; reduction in bladder contraction (PAR1 [4]; 100 μM TFLLR, compound 3 μM): 45%; reduction in bladder contraction (PAR1 [4]; 100 μM TFLLR, compound 10 μM): 70%; amplitude of bladder contraction (PAR1 [4]; 100 μM TFLLR, compound 30 μM): 0.00 ± 0.04 g; effect on TFLLR-induced bladder contraction (PAR1 [4]; compound 1 μM): inactive; effect on TFLLR-induced bladder contraction (PAR1 [4]; compound 30 μM): completely abolished |
| CCOC(=O)N[C@@H]1CC[C@@H]2[C@@H](C1)C[C@H]1C(=O)O[C@H](C)[C@H]1[C@H]2/C=C/c1ccc(-c2cccc(F)c2)cn1 [vorapaxar, ethyl N-[(3R,3aS,4S,4aR,7R,8aR,9aR)-4-[(E)-2-[5-(3-fluorophenyl)-2-pyridyl]vinyl]-3-methyl-1-oxo-3a,4,4a,5,6,7,8,8a,9,9a-decahydro-3H-benzo[f]isobenzofuran-7-yl]carbamate] | – | – | – | – | – | – | – | – | lesser efficacy | – | – | – | – | 0.79 ± 0.14 | 0.14 ± 0.02 | 75% | 0.04 ± 0.03 | solubility [5]: low solubility; amplitude of bladder contraction (PAR1 [4]; 100 μM TFLLR, compound 3 nM): 0.31 ± 0.12 g; reduction in bladder contraction (PAR1 [4]; 100 μM TFLLR, compound 3 nM): ~50%; effect on TFLLR-induced bladder contraction (PAR1 [4]; compound from 1 μM): completely abolishes |
